“Also recorded” adds a separate entry of the source.
Columns and labels:
[1] = Thermal stability of SOD mimetic compounds (retained SOD activity after thermal process in solvents/oils); format: physicochemical; details: for decline in activity after thermal process: dehydrated ethanol, 60 minutes, FIG. 4; for retained activity / retained activity after thermal process: 120 minutes; for retained activity after thermal process: solvent not stated
Source text: (§1) In this example, Mn-cpx3, Mn-TBAP, Mn-TMPyP and Mn-TM-2-PyP were purchased from Aldrich Company, and were used as SOD mimetic compounds. These compounds are low-molecular complex having π-conjugate system. These compounds are basically water-soluble, and are also soluble in ethanol and in lubricating oils. In the case where an SOD mimetic compound was to be dissolved in ethylene glycol, and in a food oil containing vegetable sterol and glycerin ester as main components, the SOD mimetic compound was first dissolved in ethanol, and then the ethanol solution was added into ethylene glycol and a food oil. In the case where an SOD mimetic compound was to be dissolved in an engine oil (trade name: Eneos Motor Oil), the SOD mimetic compound was firstly dissolved in dimethyl sulfoxide (DMSO), and then the DMSO solution was added into the engine oil. As for the concentration conditions for thermal stability, investigation was performed in the presence of 1 to 10 μg/mL of an SOD mimetic compound in the water-based solution and 10 to 50 μg/mL of an SOD mimetic compound in the oil-based solution, with 10% of ethanol or DMSO, in the temperature range of 50 to 140° C.
The SOD activity of the SOD mimetic compounds was measured by using as an index the oxidation of a water-soluble tetrazolium salt (WST) by oxygen radicals generated from xanthin-xanthin oxidase. Specifically, the WST was used as a substrate of the oxidation by oxygen radicals, and the activity measurement was performed by using as an index the difference in the production of water-soluble tetrazolium formazan made by the presence and the absence of the SOD mimetic compound (see the following document: H. Ueda, D. Kawana, S. Maeda and M. Sawamura, Biosci. Biotechnol. Biochem., 63, 485-488, 1999). As the WST is oxidized to become water-soluble tetrazolium formazan, ultraviolet absorption occurs at 450 nm. Therefore, by measuring this ultraviolet absorption, the oxidation reaction by oxygen radicals can easily be measured. The activity measurement buffer was a 35 mM sodium carbonate solution (pH 10.2) containing 0.17 mM of xanthin and 0.11 mM of EDTA. The oxidation substrate used was 0.24 mM of the WST. The SOD mimetic compounds were dissolved in ethanol or DMSO. The concentrations thereof at the time of measurement of activity were 0.1 to 0.8 μg/mL.
In this example, the vegetable food oil used was diacyl glycerol. Mn-TMPyP retained 50% of the activity at 70° C. after 120 minutes, and 40% of the activity at 100° C. after 120 minutes. […] It has become clear that Mn-cpx3 is particularly excellent in the SOD-mimetic activity and the thermal stability in food oil.
With regard to Mn-cpx3, which was considered to be the most excellent in activity and thermal stability, the stability thereof in other oil solutions was investigated. […] However, in engine oil, the stability sharply declines to about 10 to 20%.

[2] = Solubility of SOD mimetic compounds in water, ethanol, oils; format: physicochemical; details: solvent as stated in value
Source text: as §1

[3] = SOD activity measurement (WST oxidation by oxygen radicals from xanthin-xanthin oxidase, absorption at 450 nm); format: biochemical; details: FIG. 2
Source text: In this activity measurement system, the WST used as the oxidation substrate can be considered to be a model compound as the substance that is subject to oxidation by oxygen radicals, that is, as the functional substance. […]

[4] = vegetable food oil (diacyl glycerol), 100° C., FIG. 5

**Q.** For O=C(O)c1ccc(C2=C3C=CC(=N3)C(c3ccc(C(=O)O)cc3)=c3ccc([nH]3)=C(c3ccc(C(=O)O)cc3)c3ccc([n-]3)C(c3ccc(C(=O)O)cc3)c3ccc2[n-]3)cc1.[Cl-].[Mn+3] (stereo not shown) [Mn-TBAP, Mn(III) tetrakis(4-benzoic acid)porphyrin chloride], which “decline in activity after thermal process” value ([1]; 70° C.) is on record?
**A.** substantially no decline in the activity

**Q.** For C[n+]1ccc(-c2c3nc(c(-c4cc[n+](C)cc4)c4ccc([nH]4)c(-c4cc[n+](C)cc4)c4nc(c(-c5cc[n+](C)cc5)c5ccc2[nH]5)C=C4)C=C3)cc1.[Mn+3] [Mn-TMPyP, Mn(III) tetrakis(1-methyl-4-pyridyl)porphyrin], which retained activity ([1]; vegetable food oil (diacyl glycerol), 70° C., FIG. 5) is on record?
**A.** 50%

**Q.** What about the retained activity [1, 4] of the same compound?
**A.** 40%

**Q.** Which results are given for “manganese (Mn) complex of 7-hydroxyflavone [Mn-cpx3]”?
**A.** retained activity after thermal process ([1]; 50° C.): ~100%; retained activity after thermal process ([1]; 100° C.): ≥ 70%; decline in activity after thermal process ([1]; 70° C.): substantially no decline in the activity; retained activity ([1]; ethylene glycol, 140° C., FIG. 6): 70%; retained activity [1, 4]: 60%; retained activity ([1]; vegetable food oil (diacyl glycerol), 140° C., FIG. 5): 50%; stability in water-based ethanol ([1]; water-based ethanol): highly stable; solubility [2]: soluble in ethylene glycol and in vegetable oil; also recorded: soluble even in oil solutions; relative activity per unit weight with reference to the enzyme activity of the PEG-modified A. per SOD ([3]; after the process in ethanol at 50° C. for 10 minutes): 850 times; relative activity per unit weight with reference to the enzyme activity of the PEG-modified A. per SOD ([3]; in water): 460 times
